How the values were obtained:
wild-type BRAF enzyme = wild-type BRAF enzyme (Homo sapiens (Human), UniProt P15056); experiment: RAF inhibition assay (TB-PMAP2K1 kit), wild-type BRAF; assay type: biochemical; conditions: FLUORESCEIN-MAP2K1 substrate, 60 min reaction
Protocol: Assay protocol: the inhibitory effects of the compounds of the present invention on the wild-type BRAF enzyme, mutant CRAF enzyme (RAF1 Y340D and Y341D) and mutant BRAF enzyme (BRAF-V600E) activity were determined according to the instructions of the TB-PMAP2K1 (PSER217/221) kit (ThermoFisher). Different RAF enzymes and substrates (FLUORESCEIN-MAP2K1) were pre-incubated with test compounds at various concentrations at room temperature for 15 min, and then the adenosine triphosphate (ATP) was added to initiate the reaction. After incubation at room temperature for 60 min, EDTA and Tb-labeled anti-pMAP2K1 [pS217/221] antibody solutions were added, and incubation was performed at room temperature for 60 min before the detection of the fluorescence values of the compounds in each group. With the vehicle group (DMSO) as the negative control and the buffer group (without RAF enzyme) as the blank control, the relative inhibitory activity percentage (i.e., the inhibition rate) of a compound at different concentrations was calculated according to the following formula:
Relative inhibitory activity percentage=1−(Compound group at various concentrations−blank control)/(negative control−blank control)*100%
The relative inhibitory activity percentages of the compounds at different concentrations were plotted against the compound concentrations, the curve was fitted according to a four-parameter model, and the IC50 value was calculated according to the following formula:
y=min+(max−min)/(1+(x/IC50)^(−Hillslope))
wherein y is the relative inhibitory activity percentage, max and min are respectively the maximum and minimum values of the fitted curve, x is the logarithm concentration of the compound, and Hillslope is the slope of the curve.

[1] = tested on: human hepatocellular carcinoma cell HepG2 (NRAS-Q61K mutation); experiment: Cancer cell proliferation inhibition assay, HepG2; assay type: cell-based; conditions: 72 h incubation, Cell Titer Glo
Source text: (§1) The inhibitory effects of the compounds of the present invention on cancer cell proliferation were further evaluated by testing the effects of the compounds of the present invention on the growth of cancer cells.
(§2) In this example, human melanoma cell A375 (BRAF-V600E mutation, purchased from the Cell Bank of the Chinese Academy of Sciences) and human hepatocellular carcinoma cell HepG2 (NRAS-Q61K mutation, purchased from ATCC, USA) were employed.
(§3) In this example, the test compounds at various concentrations (100000 nM, 30000 nM, 10000 nM, 3000 nM, 1000 nM, 300 nM, 100 nM, 30 nM, 10 nM) were added to the above cells, and the incubation was performed for 72 h. The inhibitory activity of the compounds was tested by measuring ATP in living cells using the Cell Titer Glo Kit (Promega).
(§4) The IC50 values of the compounds of the present invention for each tested cell were determined, and the test results are as follows: […]

[2] = tested on: human melanoma cell A375 (BRAF-V600E mutation); experiment: Cancer cell proliferation inhibition assay, A375; assay type: cell-based; conditions: A-375, 72 h incubation, Cell Titer Glo
Source text: as §1, §2, §3, §4

wild-type BRAF enzyme, sequence (P15056 whole entry): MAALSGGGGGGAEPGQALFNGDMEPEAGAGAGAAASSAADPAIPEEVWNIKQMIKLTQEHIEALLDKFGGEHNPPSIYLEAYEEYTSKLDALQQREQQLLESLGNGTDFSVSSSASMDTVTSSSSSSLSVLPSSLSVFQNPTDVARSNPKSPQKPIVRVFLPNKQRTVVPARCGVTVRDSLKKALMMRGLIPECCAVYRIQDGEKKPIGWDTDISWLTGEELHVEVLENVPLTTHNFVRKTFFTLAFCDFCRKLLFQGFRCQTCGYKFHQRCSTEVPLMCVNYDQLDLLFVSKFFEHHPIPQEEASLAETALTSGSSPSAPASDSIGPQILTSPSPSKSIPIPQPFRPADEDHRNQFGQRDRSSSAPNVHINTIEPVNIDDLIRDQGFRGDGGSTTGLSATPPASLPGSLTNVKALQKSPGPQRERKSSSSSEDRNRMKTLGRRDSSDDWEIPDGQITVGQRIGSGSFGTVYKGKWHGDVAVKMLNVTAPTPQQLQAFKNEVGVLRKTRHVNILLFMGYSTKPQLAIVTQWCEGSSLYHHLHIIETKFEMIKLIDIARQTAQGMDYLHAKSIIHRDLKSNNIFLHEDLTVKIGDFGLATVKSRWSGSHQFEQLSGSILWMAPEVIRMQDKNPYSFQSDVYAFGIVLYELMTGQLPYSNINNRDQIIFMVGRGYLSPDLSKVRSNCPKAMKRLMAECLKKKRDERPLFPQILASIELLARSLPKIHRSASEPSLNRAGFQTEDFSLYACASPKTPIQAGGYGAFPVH

| SMILES | IC50 (wild-type BRAF enzyme) [nM] | IC50 [1] [nM] | IC50 [2] [nM] |
| --- | --- | --- | --- |
| Cc1ccc2c(Cc3cccc(C(F)(F)F)c3)nccc2c1NC(=O)c1csc2c(N)ncnc12 [Compound 19, 4-amino-N-(6-methyl-1-(3-(trifluoromethyl)benzyl)isoquinolin-5-yl)thieno[3,2-d]pyrimidine-7-carboxamide] | 21.6 ± 4.85 | 136 ± 21.3 | 163 ± 21.3 |
| Cc1ccc2c(C(=O)c3cccc(C(F)(F)F)c3)nccc2c1NC(=O)c1csc2c(N)ncnc12 [Compound 22, 4-amino-N-(6-methyl-1-(3-(trifluoromethyl)benzoyl)isoquinolin-5-yl)thieno[3,2-d]pyrimidine-7-carboxamide] | 50.2 ± 8.47 | – | – |
| Cc1ccc2c(C(O)c3cccc(C(F)(F)F)c3)nccc2c1NC(=O)c1csc2c(N)ncnc12 (stereo not drawn) [Compound 23, 4-amino-N-(1-(hydroxy(3-(trifluoromethyl)phenyl)methyl)-6-methylisoquinolin-5-yl)thieno[3,2-d]pyrimidine-7-carboxamide] | 51.4 ± 1.64 | – | 64.7 ± 4.22 |
| Cc1ccc2c(C(O)c3ccc(Cl)cc3F)nccc2c1NC(=O)c1csc2c(N)ncnc12 (stereo not drawn) [Compound 28, 4-amino-N-(1-((4-chloro-2-fluorophenyl)(hydroxy)methyl)-6-methylisoquinolin-5-yl)thieno[3,2-d]pyrimidine-7-carboxamide] | 9.43 ± 0.76 | – | 98.8 ± 10.2 |
| Cc1ccc2c(C(C)Oc3ccccc3)nccc2c1NC(=O)c1csc2c(N)ncnc12 (stereo not drawn) [Compound 35, 4-amino-N-(6-methyl-1-(1-phenoxyethyl)isoquinolin-5-yl)thieno[3,2-d]pyrimidine-7-carboxamide] | 125 ± 3.5 | – | – |
| Cc1ccc2c(Nc3cccc(Cl)c3)nccc2c1NC(=O)c1cccc2c(N)ncnc12 [Compound 38, 4-amino-N-(1-((3-chlorophenyl)amino)-6-methylisoquinolin-5-yl)quinazoline-8-carboxamide] | 23.2 ± 2.67 | 38.1 ± 3.6 | 96.7 ± 14.3 |
| Cc1ccc2c(Nc3ccccc3F)nccc2c1NC(=O)c1cccc2c(N)ncnc12 [Compound 39, 4-amino-N-(1-((2-fluorophenyl)amino)-6-methylisoquinolin-5-yl)quinazoline-8-carboxamide] | 8.44 ± 2.46 | 27.1 ± 2.5 | – |
| Cc1ccc2c(Nc3ccc(Cl)cc3F)nccc2c1NC(=O)c1cccc2c(N)ncnc12 [Compound 41, 4-amino-N-(1-((4-chloro-2-fluorophenyl)amino)-6-methylisoquinolin-5-yl)quinazoline-8-carboxamide] | 31.8 ± 5.36 | 55.6 ± 4.8 | 22.2 ± 1.86 |
| Cc1ccc2c(Nc3cccc(C(F)(F)F)c3)nccc2c1NC(=O)c1cnc2c(N)ncnn12 [Compound 43, 4-amino-N-(6-methyl-1-((3-(trifluoromethyl)phenyl)amino)isoquinolin-5-yl)imidazo[2,1-f][1,2,4]triazine-7-carboxamide] | 20.7 ± 5.71 | 32.9 ± 3.3 | 61.7 ± 3 |
| Cc1ccc2c(Nc3cccc(Cl)c3F)nccc2c1NC(=O)c1cc(F)cc2c(N)ncnc12 [Compound 46, 4-amino-N-(1-((3-chloro-2-fluorophenyl)amino)-6-methylisoquinolin-5-yl)-6-fluoroquinazoline-8-carboxamide] | 79.3 ± 19.5 | 74.4 ± 7.91 | 89.3 ± 5.2 |
| Cc1ccc2c(Nc3ccc(F)c(Cl)c3)nccc2c1NC(=O)c1cnc2c(N)ncnn12 [Compound 58, 4-amino-N-(1-((3-chloro-4-fluorophenyl)amino)-6-methylisoquinolin-5-yl)imidazo[2,1-f][1,2,4]triazine-7-carboxamide] | 10.8 ± 1.09 | 37.6 ± 3.34 | – |
| COc1ccc(Nc2nccc3c(NC(=O)c4cccc5c(N)ncnc45)c(C)ccc23)c(F)c1 [Compound 60, 4-amino-N-(1-((2-fluoro-4-methoxyphenyl)amino)-6-methylisoquinolin-5-yl)quinazoline-8-carboxamide] | 8.48 ± 0.9 | 34.1 ± 4.32 | 28 ± 3.12 |
| Cc1ccc2c(Nc3ccc(F)cc3F)nccc2c1NC(=O)c1cccc2c(N)ncnc12 [Compound 67, 4-amino-N-(1-((2,4-difluorophenyl)amino)-6-methylisoquinolin-5-yl)quinazoline-8-carboxamide] | 13.2 ± 1.67 | 56.7 ± 9.3 | 184 ± 16.9 |
| Cc1ccc2c(Nc3cc(Cl)ccc3F)nccc2c1NC(=O)c1cccc2c(N)ncnc12 [Compound 73, 4-amino-N-(1-((5-chloro-2-fluorophenyl)amino)-6-methylisoquinolin-5-yl)quinazoline-8-carboxamide] | 36.2 ± 16.5 | 59.6 ± 2.2 | 109 ± 22.8 |
| Cc1ccc2c(Nc3ccc(C#N)cc3F)nccc2c1NC(=O)c1cccc2c(N)ncnc12 [Compound 78, 4-amino-N-(1-((4-cyano-2-fluorophenyl)amino)-6-methylisoquinolin-5-yl)quinazoline-8-carboxamide] | – | 56.4 ± 5.8 | 63.5 ± 2.6 |
| Cc1ccc2c(Nc3cccc(Cl)c3F)nccc2c1NC(=O)c1cc(OCCN2CCOCC2)cc2c(N)ncnc12 [Compound 79, 4-amino-N-(1-((3-chloro-2-fluorophenyl)amino)-6-methylisoquinolin-5-yl)-6-(2-morpholinoethoxy)quinazoline-8-carboxamide] | – | 145 ± 12.3 | 72.2 ± 13 |
| Cc1ccc2c(Nc3cc(C#N)ccc3F)nccc2c1NC(=O)c1cccc2c(N)ncnc12 [Compound 80, 4-amino-N-(1-((5-cyano-2-fluorophenyl)amino)-6-methylisoquinolin-5-yl)quinazoline-8-carboxamide] | – | 75.4 ± 6 | 167 ± 8.47 |
| Cc1ccc2c(Nc3ccc4c(c3)CN(C)CC4)nccc2c1NC(=O)c1cccc2c(N)ncnc12 [Compound 82, 4-amino-N-(6-methyl-1-((2-methyl-1,2,3,4-tetrahydroisoquinolin-7-yl)amino)isoquinolin-5-yl)quinazoline-8-carboxamide] | – | 245 ± 27.3 | 141 ± 44.1 |
| Cc1ccc2c(Nc3cccc(C#N)c3F)nccc2c1NC(=O)c1cccc2c(N)ncnc12 [Compound 83, 4-amino-N-(1-((3-cyano-2-fluorophenyl)amino)-6-methylisoquinolin-5-yl)quinazoline-8-carboxamide] | – | 50.5 ± 8.48 | 61.9 ± 6.7 |
| Cc1ccc2c(Nc3cc(Cl)ccc3F)nccc2c1NC(=O)c1cc(F)cc2c(N)ncnc12 [Compound 84, 4-amino-N-(1-((5-chloro-2-fluorophenyl)amino)-6-methylisoquinolin-5-yl)-6-fluoroquinazoline-8-carboxamide] | – | 67.2 ± 9.93 | 165 ± 6.5 |
| Cc1ccc2c(Nc3ccc(F)cc3F)nccc2c1NC(=O)c1cc(F)cc2c(N)ncnc12 [Compound 85, 4-amino-N-(1-((2,4-difluorophenyl)amino)-6-methylisoquinolin-5-yl)-6-fluoroquinazoline-8-carboxamide] | 12.9 ± 0.9 | 40.1 ± 6.97 | 148 ± 3.8 |
| Cc1ccc2c(Nc3cccc(Cl)c3F)nccc2c1NC(=O)c1cc(OCCO)cc2c(N)ncnc12 [Compound 86, 4-amino-N-(1-((3-chloro-2-fluorophenyl)amino)-6-methylisoquinolin-5-yl)-6-(2-hydroxyethoxy)quinazoline-8-carboxamide] | – | 48 ± 5.36 | 60.6 ± 2.8 |
| COc1ccc(F)c(Nc2nccc3c(NC(=O)c4cccc5c(N)ncnc45)c(C)ccc23)c1 [Compound 87, 4-amino-N-(1-((2-fluoro-5-methoxyphenyl)amino)-6-methylisoquinolin-5-yl)quinazoline-8-carboxamide] | – | 37.7 ± 7.05 | 56 ± 2.5 |
| Cc1ccc(Nc2nccc3c(NC(=O)c4cccc5c(N)ncnc45)c(C)ccc23)c(F)c1 [Compound 88, 4-amino-N-(1-((2-fluoro-4-methylphenyl)amino)-6-methylisoquinolin-5-yl)quinazoline-8-carboxamide] | – | 70.2 ± 9.8 | 55.4 ± 8 |
| Cc1ccc2c(Nc3cc(S(C)(=O)=O)ccc3F)nccc2c1NC(=O)c1cccc2c(N)ncnc12 [Compound 89, 4-amino-N-(1-((2-fluoro-5-(methylsulfonyl)phenyl)amino)-6-methylisoquinolin-5-yl)quinazoline-8-carboxamide] | 20.4 ± 1.3 | 106 ± 25.2 | 111 ± 5.2 |
| Cc1ccc2c(Nc3cc(Br)ccc3F)nccc2c1NC(=O)c1cccc2c(N)ncnc12 [Compound 91, 4-amino-N-(1-((5-bromo-2-fluorophenyl)amino)-6-methylisoquinolin-5-yl)quinazoline-8-carboxamide] | – | 140 ± 17 | 87.1 ± 10.4 |

From patent US20230312556A1, “ARYLAMIDE COMPOUND, PHARMACEUTICAL COMPOSITION COMPRISING SAME, AND PREPARATION METHOD THEREFOR AND USE THEREOF” (SICHUAN KELUN-BIOTECH BIOPHARMACEUTICAL CO., LTD., priority 2020, published 2023)
